Laboratory results as given in the supplement of paper PMC10307832.

Legend:
Assay in all cases: relative viability (nuclei count vs DMSO), 5 days (fraction); higher = more cells survive
Linsitinib + Navitoclax = compound: C[C@]1(O)C[C@@H](c2nc(-c3ccc4ccc(-c5ccccc5)nc4c3)c3c(N)nccn32)C1 [Linsitinib] + CC1(C)CCC(c2ccc(Cl)cc2)=C(CN2CCN(c3ccc(C(=O)NS(=O)(=O)c4ccc(N[C@H](CCN5CCOCC5)CSc5ccccc5)c(S(=O)(=O)C(F)(F)F)c4)cc3)CC2)C1 [Navitoclax] (partner 0.5 µM)
In short: (§1)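 Relative viability is defined as nuclei in treated wells over nuclei in vehicle wells. Duplicate plates were run and medians reported. Lung cancer cell lines in 1536-well plates were dosed by pin tool one day after seeding, with one drug or with a fixed anchor-drug dose plus five library-drug doses (not always all listed) in √10 steps, and nuclei were counted after 5 days.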

Ispinesib + Decitabine = compound: Cc1ccc(C(=O)N(CCCN)[C@@H](c2nc3cc(Cl)ccc3c(=O)n2Cc2ccccc2)C(C)C)cc1 [Ispinesib] + Nc1ncn([C@H]2C[C@H](O)[C@@H](CO)O2)c(=O)n1 [Decitabine] (partner 2 µM)
In short: as §1

Ispinesib + Trametinib = compound: Cc1ccc(C(=O)N(CCCN)[C@@H](c2nc3cc(Cl)ccc3c(=O)n2Cc2ccccc2)C(C)C)cc1 [Ispinesib] + CC(=O)Nc1cccc(-n2c(=O)n(C3CC3)c(=O)c3c(Nc4ccc(I)cc4F)n(C)c(=O)c(C)c32)c1 [Trametinib] (partner 0.02 µM)
In short: as §1

Linsitinib + Decitabine = compound: C[C@]1(O)C[C@@H](c2nc(-c3ccc4ccc(-c5ccccc5)nc4c3)c3c(N)nccn32)C1 [Linsitinib] + Nc1ncn([C@H]2C[C@H](O)[C@@H](CO)O2)c(=O)n1 [Decitabine] (partner 2 µM)
In short: as §1

Cell Line	relative viability (Linsitinib + Navitoclax; first compound 0.01 µM)	relative viability (Linsitinib + Navitoclax; first compound 0.03162 µM)	relative viability (Linsitinib + Navitoclax; first compound 0.1 µM)	relative viability (Linsitinib + Navitoclax; first compound 1 µM)	relative viability (Ispinesib + Decitabine; first compound 0.001 µM)	relative viability (Ispinesib + Decitabine; first compound 0.003162 µM)	relative viability (Ispinesib + Decitabine; first compound 0.01 µM)	relative viability (Ispinesib + Decitabine; first compound 0.03162 µM)	relative viability (Ispinesib + Decitabine; first compound 0.1 µM)	relative viability (Ispinesib + Trametinib; first compound 0.001 µM)	relative viability (Ispinesib + Trametinib; first compound 0.003162 µM)	relative viability (Ispinesib + Trametinib; first compound 0.01 µM)	relative viability (Ispinesib + Trametinib; first compound 0.03162 µM)	relative viability (Ispinesib + Trametinib; first compound 0.1 µM)	relative viability (Linsitinib + Decitabine; first compound 0.01 µM)	relative viability (Linsitinib + Decitabine; first compound 0.03162 µM)	relative viability (Linsitinib + Decitabine; first compound 0.1 µM)	relative viability (Linsitinib + Decitabine; first compound 1 µM)	relative viability (Linsitinib + Navitoclax; first compound 0.3162 µM)	relative viability (Linsitinib + Decitabine; first compound 0.3162 µM)
A-427	0.97	0.964	0.999	0.967	0.578	0.539	0.587	0.395	0.3	0.721	0.811	0.745	0.463	0.226	0.597	0.595	0.577	0.523	–	–
HCC-366	1.04	0.782	1.12	0.996	0.377	0.426	0.396	0.399	0.0716	0.386	0.428	0.403	0.411	0.0793	0.35	0.354	0.349	0.326	0.921	0.293
BEN	0.0565	0.0788	0.0565	0.0587	0.714	0.737	0.785	0.421	0.375	1.07	1.17	1.15	0.916	0.677	0.526	0.945	0.65	0.747	0.0421	0.442
NCI-H2347	0.731	0.915	0.717	0.754	0.625	0.618	0.597	0.578	0.589	0.299	0.23	0.294	0.343	0.252	0.644	0.668	0.629	0.614	0.533	0.591
NCI-H1975	1.08	0.941	1.04	0.8	0.382	0.436	0.37	0.288	0.221	0.345	0.337	0.364	0.158	0.158	0.375	0.452	0.376	0.363	1.12	0.34
NCI-H2126	0.95	0.808	0.945	0.878	0.541	0.536	0.57	0.551	0.559	0.542	0.574	0.58	0.589	0.508	0.6	0.675	0.574	0.577	0.925	0.544
NCI-H2087	1.1	1.05	0.861	0.821	0.346	0.297	0.241	0.194	0.122	0.153	0.196	0.212	0.236	0.0806	0.275	0.387	0.257	0.267	0.843	0.259
